Our source for the Ki values is patent publication US9061966B2, “Cyclopropylamine inhibitors of oxidases” (ORYZON GENOMICS S.A., priority 2010, dated 2015).

Where a name gives a salt, the structure may show the parent alone.

Assay type in all cases: biochemical
In experiment [1] the target is T1, Human recombinant monoamine oxidase MAO-B (Homo sapiens, UniProt P27338).
T1 construct: purchased Sigma Aldrich
T1 sequence (P27338 1-520): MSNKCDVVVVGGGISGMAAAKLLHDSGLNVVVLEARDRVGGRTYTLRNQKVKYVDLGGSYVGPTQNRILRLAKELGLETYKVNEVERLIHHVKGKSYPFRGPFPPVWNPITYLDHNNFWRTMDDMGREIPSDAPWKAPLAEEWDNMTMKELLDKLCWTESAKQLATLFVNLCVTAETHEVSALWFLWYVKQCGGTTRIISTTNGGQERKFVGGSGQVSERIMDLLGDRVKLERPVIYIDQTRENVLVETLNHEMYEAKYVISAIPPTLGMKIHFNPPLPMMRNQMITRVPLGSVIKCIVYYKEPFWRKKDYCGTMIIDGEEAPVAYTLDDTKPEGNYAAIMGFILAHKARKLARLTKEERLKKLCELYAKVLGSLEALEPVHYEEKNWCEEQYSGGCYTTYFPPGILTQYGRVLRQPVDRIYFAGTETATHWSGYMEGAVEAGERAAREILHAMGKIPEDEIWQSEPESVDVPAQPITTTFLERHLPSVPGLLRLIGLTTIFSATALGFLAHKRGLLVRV
Nature of the experiment: Monoamine oxidase assay, kynuramine fluorescence, MAO-B. The conditions noted are these: Ki (IC50) determined at Vmax/2; range class. The source says: (§1) Human recombinant monoamine oxidase proteins MAO-A and MAO-B were purchased from Sigma Aldrich. MAOs catalyze the oxidative deamination of primary, secondary and tertiary amines. In order to monitor MAO enzymatic activities and/or their inhibition rate by inhibitor(s) of interest, a fluorescence-based (inhibitor)-screening assay was set up. 3-(2-Aminophenyl)-3-oxopropanamine (kynuramine dihydrobromide, Sigma Aldrich), a non fluorescent compound was chosen as a substrate. Kynuramine is a non-specific substrate for both MAO-A and MAO-B activities. While undergoing oxidative deamination by MAO activities, kynuramine is converted into 4-hydroxyquinoline (4-HQ), a resulting fluorescent product.
(§2) The monoamine oxidase activity was estimated by measuring the conversion of kynuramine into 4-hydroxyquinoline. Assays were conducted in 96-well black plates with clear bottom (Corning) in a final volume of 100 μL. The assay buffer was 100 mM HEPES, pH 7.5. Each experiment was performed in triplicate within the same experiment.
(§3) Briefly, a fixed amount of MAO (0.25 μg for MAO-A and 0.5 μg for MAO-B) was incubated on ice for 15 minutes in the reaction buffer, in the absence and/or in the presence of various concentrations of inhibitor (e.g., from 0 to 50 μM, depending on the inhibitor strength). Tranylcypromine (Biomol International) was used as a control for inhibition.
(§4) After leaving the enzyme(s) interacting with the inhibitor, 60 to 90 μM of kynuramine was added to each reaction for MAO-B and MAO-A assay respectively, and the reaction was left for 1 hour at 37° C. in the dark. The oxidative deamination of the substrate was stopped by adding 50 μL (v/v) of NaOH 2N. The conversion of kynuramine to 4-hydroxyquinoline, was monitored by fluorescence (excitation at 320 nm, emission at 360 nm) using a microplate reader (Infinite 200, Tecan). Arbitrary units were used to measure levels of fluorescence produced in the absence and/or in the presence of inhibitor.
(§5) The maximum of oxidative deamination activity was obtained by measuring the amount of 4-hydroxyquinoline formed from kynuramine deamination in the absence of inhibitor and corrected for background fluorescence in the absence of MAO enzymes. The Ki (IC50) of each inhibitor was determined at Vmax/2.

The target of experiment [2] is T2, Human recombinant LSD1 protein (Homo sapiens, UniProt O60341).
T2 construct: purchased BPS Bioscience Inc
Kind of experiment: Inhibition of LSD1 (Amplex Red peroxide/peroxidase-coupled demethylase assay, di-methylated H3-K4 peptide substrate). The following applies: Ki (IC50) estimated at half of the maximum activity; range class. The source says: The compounds of the invention can be tested for their ability to inhibit LSD1. The ability of the compounds of the invention to inhibit LSD1 can be tested as follows. Human recombinant LSD1 protein was purchased from BPS Bioscience Inc. In order to monitor LSD1 enzymatic activity and/or its inhibition rate by our inhibitor(s) of interest, di-methylated H3-K4 peptide (Millipore) was chosen as a substrate. The demethylase activity was estimated, under aerobic conditions, by measuring the release of H2O2 produced during the catalytic process, using the Amplex® Red peroxide/peroxidase-coupled assay kit (Invitrogen).
Briefly, a fixed amount of LSD1 was incubated on ice for 15 minutes, in the absence and/or in the presence of various concentrations of inhibitor (e.g., from 0 to 75 μM, depending on the inhibitor strength). Tranylcypromine (Biomol International) was used as a control for inhibition. Within the experiment, each concentration of inhibitor was tested in triplicate. After leaving the enzyme interacting with the inhibitor, 12.5 μM of di-methylated H3-K4 peptide was added to each reaction and the experiment was left for 1 hour at 37° C. in the dark. The enzymatic reactions were set up in a 50 mM sodium phosphate, pH 7.4 buffer. At the end of the incubation, Amplex® Red reagent and horseradish peroxidase (HPR) solution were added to the reaction according to the recommendations provided by the supplier (Invitrogen), and left to incubate for 30 extra minutes at room temperature in the dark. A 1 μM H2O2 solution was used as a control of the kit efficiency. The conversion of the Amplex® Red reagent to resorufin due to the presence of H2O2 in the assay, was monitored by fluorescence (excitation at 540 nm, emission at 590 nm) using a microplate reader (Infinite 200, Tecan). Arbitrary units were used to measure level of H2O2 produced in the absence and/or in the presence of inhibitor.
The maximum demethylase activity of LSD1 was obtained in the absence of inhibitor and corrected for background fluorescence in the absence of LSD1. The Ki (IC50) of each inhibitor was estimated at half of the maximum activity.

In experiment [3] the target is T3, Human recombinant monoamine oxidase MAO-A (Homo sapiens, UniProt P21397).
T3 construct: purchased Sigma Aldrich
T3 sequence (P21397 1-527): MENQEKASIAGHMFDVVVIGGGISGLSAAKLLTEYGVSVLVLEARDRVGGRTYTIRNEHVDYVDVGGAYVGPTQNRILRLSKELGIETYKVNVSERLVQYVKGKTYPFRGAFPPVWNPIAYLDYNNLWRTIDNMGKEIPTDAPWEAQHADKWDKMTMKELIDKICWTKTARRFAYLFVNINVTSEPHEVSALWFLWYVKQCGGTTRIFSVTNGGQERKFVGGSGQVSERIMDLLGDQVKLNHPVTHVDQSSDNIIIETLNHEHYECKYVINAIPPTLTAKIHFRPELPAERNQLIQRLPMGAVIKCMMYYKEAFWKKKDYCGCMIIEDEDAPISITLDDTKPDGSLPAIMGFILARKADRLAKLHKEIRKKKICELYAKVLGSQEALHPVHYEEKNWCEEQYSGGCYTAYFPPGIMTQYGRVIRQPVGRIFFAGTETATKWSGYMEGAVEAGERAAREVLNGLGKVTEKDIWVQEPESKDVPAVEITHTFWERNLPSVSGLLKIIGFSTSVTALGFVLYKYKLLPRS
Nature of the experiment: Monoamine oxidase assay, kynuramine fluorescence, MAO-A. The following applies: Ki (IC50) determined at Vmax/2; range class.
From the text: as §1, §2, §3, §4, §5

For the compound `N#Cc1cccc(Nc2ccc([C@H]3C[C@@H]3N)cn2)c1` (racemic) [Example 9, 3-(5-((trans)-2-aminocyclopropyl)pyridin-2-ylamino)benzonitrile hydrochloride], the Ki in experiment [1] is 100 to 1000 nM; in experiment [2], 100 to 1000 nM; in experiment [3] it was 1000 to 40000 nM.
As for `Cc1ccc(CNc2ccc([C@H]3C[C@@H]3N)cn2)cc1` (racemic) [Example 17, 5-((trans)-2-aminocyclopropyl)-N-(4-methylbenzyl)pyridin-2-amine hydrochloride], the results for the Ki in experiment [1], in experiment [2] and in experiment [3] were 1000 to 40000 nM, 100 to 1000 nM and 1000 to 40000 nM, respectively.
As for `N[C@H]1C[C@@H]1c1ccc(NCc2ccc(C(F)(F)F)cc2)nc1` (racemic) [Example 15, 5-((trans)-2-aminocyclopropyl)-N-(4-(trifluoromethyl)benzyl)pyridin-2-amine hydrochloride], the results for the Ki in experiment [1], in experiment [2] and in experiment [3] were 1000 to 40000 nM, 100 to 1000 nM and 1000 to 40000 nM, respectively.
Consider `N[C@H]1C[C@@H]1c1ccc(Nc2ccc(Cl)cc2)nc1` (racemic) [Example 2, 5-((trans)-2-aminocyclopropyl)-N-(4-chlorophenyl)pyridin-2-amine hydrochloride], for which the values for the Ki in experiment [1], in experiment [2] and in experiment [3] were 1 to 100 nM, 100 to 1000 nM and 1000 to 40000 nM, respectively.
`Cc1cccc(Nc2ccc([C@H]3C[C@@H]3N)cn2)c1` (racemic) [Example 7, 5-((trans)-2-aminocyclopropyl)-N-m-tolylpyridin-2-amine hydrochloride]: the Ki was 100 to 1000 nM in experiment [1], 100 to 1000 nM in experiment [2] and 1000 to 40000 nM in experiment [3].
Turning to `N#Cc1cccc(CNc2ccc([C@H]3C[C@@H]3N)cn2)c1` (racemic) [Example 18, 3-((5-((trans)-2-aminocyclopropyl)pyridin-2-ylamino)methyl)benzonitrile hydrochloride], the Ki in experiment [1] is 1000 to 40000 nM; in experiment [2], 100 to 1000 nM; in experiment [3] it was 1000 to 40000 nM.
Consider `N[C@H]1C[C@@H]1c1ccc(NCc2cccc(Cl)c2)nc1` (racemic) [Example 12, 5-((trans)-2-aminocyclopropyl)-N-(3-chlorobenzyl)pyridin-2-amine hydrochloride], for which the Ki is 1000 to 40000 nM in experiment [1], 100 to 1000 nM in experiment [2] and 1000 to 40000 nM in experiment [3].
Consider `N[C@H]1C[C@@H]1c1ccc(Nc2ccc(C(F)(F)F)cc2)nc1` (racemic) [Example 3, 5-((trans)-2-aminocyclopropyl)-N-(4-(trifluoromethyl)phenyl)pyridin-2-amine hydrochloride], for which the values for the Ki in experiment [1], in experiment [2] and in experiment [3] were 100 to 1000 nM, 100 to 1000 nM and 1000 to 40000 nM, respectively.
Consider `COc1cccc(Nc2ccc([C@H]3C[C@@H]3N)cn2)c1` (racemic) [Example 4, 5-((trans)-2-aminocyclopropyl)-N-(3-methoxyphenyl)pyridin-2-amine hydrochloride], for which the values for the Ki in experiment [1], in experiment [2] and in experiment [3] were 1000 to 40000 nM, 100 to 1000 nM and 1000 to 40000 nM, respectively.
`COc1ccc(Nc2ccc([C@H]3C[C@@H]3N)cn2)cc1` (racemic) [Example 5, 5-((trans)-2-aminocyclopropyl)-N-(4-methoxyphenyl)pyridin-2-amine hydrochloride]: the values for the Ki in experiment [1], in experiment [2] and in experiment [3] were 100 to 1000 nM, 100 to 1000 nM and 1000 to 40000 nM, respectively.
As to `Cc1cccc(CNc2ccc([C@H]3C[C@@H]3N)cn2)c1` (racemic) [Example 16, 5-((trans)-2-aminocyclopropyl)-N-(3-methylbenzyl)pyridin-2-amine hydrochloride], the Ki in experiment [1] is 1000 to 40000 nM; in experiment [2] it was 100 to 1000 nM; in experiment [3], 1000 to 40000 nM.
For `N[C@H]1C[C@@H]1c1ccc(Nc2cccc(Cl)c2)nc1` (racemic) [Example 1, 5-((trans)-2-aminocyclopropyl)-N-(3-chlorophenyl)pyridin-2-amine hydrochloride], the results for the Ki in experiment [1], in experiment [2] and in experiment [3] were 1 to 100 nM, 100 to 1000 nM and 1000 to 40000 nM, respectively.
For the compound `NC(=O)c1cccc(Nc2ccc([C@H]3C[C@@H]3N)cn2)c1` (racemic) [Example 10, 3-(5-((trans)-2-aminocyclopropyl)pyridin-2-ylamino)benzamide hydrochloride], the Ki in experiment [1] is 1000 to 40000 nM; in experiment [2], 100 to 1000 nM; in experiment [3], 1000 to 40000 nM.
In the case of `Cc1ccc(Nc2ccc([C@H]3C[C@@H]3N)cn2)cc1` (racemic) [Example 6, 5-((trans)-2-aminocyclopropyl)-N-p-tolylpyridin-2-amine hydrochloride], the figures for the Ki in experiment [1], in experiment [2] and in experiment [3] were 1000 to 40000 nM, 100 to 1000 nM and 1000 to 40000 nM, respectively.
